Data set [1] deals with me3-SET. The data set is described as follows: Cellular N-terminal methylation assay, me3-SET. It counts as cell-based. The conditions noted are these: Homo sapiens, HCT-116, HCT116 cells. The protocol:
(§1) . Representative Western blot results of the effects of GD562 (0-300 μM) on the cellular methylation level (n=2) (FIG. 4A). Representative Western blot results of the effects of GD564 (0-100 μM) on the cellular methylation level (n=2) (FIG. 4B). Representative Western blot results of the effects of GD573 (0-300 μM) on the cellular methylation level (n=2) (FIG. 4C). Image quantification was done using ImageJ software (NIH).
(§2) […]. Cellular N-methylation level. […] The membrane was then blocked for 1 hour in 5% milk TBST solution and washed with 1×TBST solution three times. […] Image quantification was done using ImageJ software (NIH).

A short description of data set [2]: in vitro. The conditions noted are these: PAMPA. The protocol: The stock solutions in 10 mM DMSO was diluted with PBS to a final concentration of 200 μM with 2% DMSO (v/v). Verapamil was added as a control. The pre-coated PAMPA plate system was warmed to room temperature, and the donor plate (bottom) was filled with 300 μL of the diluted sample solution while the acceptor plate (top) was filled with 200 μL of the buffer. […] The permeability of each compound was calculated using the formula:
• CD (t)=compound concentration in donor well at time t. • CA (t)=compound concentration in acceptor well at time t. • VD=donor well volume • VA=acceptor well volume • A=filter area • t=incubation time
A general note: In PAMPA a lipid-coated filter parts donor from acceptor wells.

Data set [3] concerns HCT116 cells. The data set is described as follows: Cytotoxicity / cell viability, alamarBlue (resazurin) assay. Type of data set: cell-based. The conditions noted are these: Homo sapiens, HCT-116, normal HCT116 cells. An excerpt: To test this hypothesis, compound 1a was selected to evaluate its effects on both wild-type and NTMT1 knockout HCT116 cells (FIG. 3B).
Background: Resazurin is reduced to fluorescent resorufin, in cell work by metabolically active cells.

In data set [4] the test system is me3-RCC1. The data set is described as follows: Cellular N-terminal methylation assay, me3-RCC1. Type of data set: cell-based, human. The conditions noted are these: HCT116 cells; for IC50: Homo sapiens, HCT-116. The protocol: as §1, §2
In data set [5] the test system is cellular α-N-terminal methylation level in HCT116 cells. The data set is described as follows: Cellular N-terminal methylation assay (Western blot, anti-me3-SPK). Type of data set: cell-based, human. The conditions noted are these: for IC50: Homo sapiens, HCT-116, HCT116 cells, Western blot, n = 2. The protocol:
FIGS. 4A-4C. Cellular N-terminal methylation assay of GD562 (1d), GD564 (1f), and GD573 (1e) in HCT116 cells. Representative Western blot results of the effects of GD562 (0-300 μM) on the cellular methylation level (n=2) (FIG. 4A). Representative Western blot results of the effects of GD564 (0-100 μM) on the cellular methylation level (n=2) (FIG. 4B). Representative Western blot results of the effects of GD573 (0-300 μM) on the cellular methylation level (n=2) (FIG. 4C). Image quantification was done using ImageJ software (NIH).
Cellular N-methylation level. […] The membrane was then blocked for 1 hour in 5% milk TBST solution and washed with 1×TBST solution three times. […] Image quantification was done using ImageJ software (NIH).

Data set [6] deals with me3-SET. The conditions noted are these: at 300 μM in HCT116 cells, previously reported; cited from earlier work.
In data set [7] the test system is me3-RCC1. The conditions noted are these: cited from earlier work.
Data set [8] concerns the target T1, NTMT1 (Homo sapiens, UniProt Q9BV86).
T1 construct: made in house
T1 sequence (Q9BV86 1-223): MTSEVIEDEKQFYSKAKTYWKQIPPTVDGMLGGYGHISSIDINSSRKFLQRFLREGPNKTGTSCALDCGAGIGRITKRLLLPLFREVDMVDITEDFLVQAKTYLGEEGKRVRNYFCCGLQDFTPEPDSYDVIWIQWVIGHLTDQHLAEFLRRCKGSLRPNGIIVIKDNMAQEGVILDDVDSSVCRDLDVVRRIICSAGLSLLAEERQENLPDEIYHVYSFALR
The data set is described as follows: NTMT1 biochemical assay (SAHH-coupled fluorescence assay).

In data set [9] the target is T1, NTMT1. The conditions noted are these: cited from earlier work.
The test system of data set [10] is panel of 41 methyltransferases. The conditions noted are these: among a panel of 41 methyltransferases; cited from earlier work.
Setting [11] is: recombinant NTMT1, n = 2, mean ± SD.

Like-named read-outs stand apart in the source and are kept apart here.

For orientation: IC50 means the concentration that gives 50% inhibition. In general, Papp refers to the rate of passage across a membrane or cell layer, normalised by area and donor concentration. The low end stands for poor permeation, the high end for ready permeation. A word on the GI50: it is the concentration giving 50% growth inhibition. A higher GI50 goes with less potent growth inhibition.

Consider `NCCCC[C@H](NC(=O)[C@@H]1CCCN1C(=O)Cc1cccc2ccccc12)C(=O)NCCc1ccccc1` [Compound 1d], for which the IC50 in data set [1] (read-out: Cellular IC50 on N-terminal methylation of SET), in [1] (read-out: Cellular IC50 on me3-SET), in data set [4] (read-out: Cellular IC50 on N-terminal methylation of RCC1), in data set [4] (read-out: Cellular IC50 on me3-RCC1) and in [5] was around 50 µM throughout. The molecule also came in with a Papp at 5 h, 200 μM in data set [2] of 0.26 ± 0.06 ×10⁻⁶ cm/s. Moreover, in [3], the GI50 is above 300 µM. Further, the “Increase in cellular inhibition activity on me3-RCC1 compared to DC541” value in data set [4] is reported as “over 2 fold”. In addition, the “Difference between enzymatic and cellular IC50 values” in data set [5] is given as around 50 fold.
On to `NCCCC[C@H](NC(=O)[C@@H]1CCCN1C(=O)Cc1cccc2ccccc12)C(=O)Nc1ccccc1C(N)=O` [DC541], for which the “Inhibition of me3-SET level” value in [6] was “did not show any inhibition”. Moreover, the IC50 is around 100 µM in [7] (HCT116, previously reported, read-out: Cellular IC50 on the me3-RCC1 level) and 0.34 ± 0.03 µM in data set [8] (setting [11]). Moreover, the “Enhancement of cellular inhibition compared to DC113” value in [7] is reported as “about 10 fold”. Further, the “IC50/IC50 (DC541)” value in data set [8] (ratio of NTMT1 IC50 to that of DC541) amounted to 1.0. Besides, in data set [9], the “Decrease in inhibitory activity on recombinant NTMT1 compared to DC113” value was around 3 fold.
In [2], `NCCCC[C@H](NC(=O)[C@@H]1CCCN1C(=O)Cc1cccc2ccccc12)C(=O)NCc1ccccc1` [Compound 1c] yielded a Papp at 5 h, 200 μM of 0.24 ± 0.06 ×10⁻⁶ cm/s. Also, the values for the IC50 in data set [8] (setting [11]) and in data set [5] were 0.91 ± 0.03 µM and below 300 µM, respectively. The GI50 in [3] is above 300 µM.
For `NCCCC[C@H](NC(=O)[C@@H]1CCCN1C(=O)Cc1cccc2ccccc12)C(=O)NCC1CCCCC1` [Compound 1f] the same measures were 0.47 ×10⁻⁶ cm/s, 0.94 ± 0.03 µM, around 100 µM and above 300 µM.
On to `NCCCC[C@H](NC(=O)[C@@H]1CCCN1C(=O)Cc1cccc2ccccc12)C(=O)Nc1cccc(Br)c1` [Compound 1a], for which the IC50 in data set [8] (setting [11]) came to 0.17 ± 0.008 µM. Further, in data set [3], the GI50 lay within 48 to 135 µM.
With `NCCCC[C@H](NC(=O)[C@@H]1CCCN1C(=O)Cc1cccc2ccccc12)C(=O)NCc1ccc(Br)cc1` [Compound 1h], the Papp at 5 h, 200 μM in data set [2] is 0.9 ± 0.2 ×10⁻⁶ cm/s. Further, the IC50 is 0.82 ± 0.07 µM in data set [8] (setting [11]) and below 300 µM in data set [5].
`NCCCC[C@H](NC(=O)[C@@H]1CCCN1C(=O)Cc1cccc2ccccc12)C(=O)NCCc1ccc(-c2ccccc2)cc1` [Compound 1j] registered a Papp at 5 h, 200 μM in data set [2] of 0.9 ×10⁻⁶ cm/s. In data set [8], this molecule came in with an IC50 of 2.5 ± 0.09 µM.
With `NCCCC[C@H](NC(=O)[C@@H]1CCCN1C(=O)Cc1cccc2ccccc12)C(=O)NCc1cccc(Br)c1` [Compound 1g], the Papp at 5 h, 200 μM in data set [2] was 0.6 ± 0.1 ×10⁻⁶ cm/s. The IC50 was 0.58 ± 0.03 µM in data set [8] (setting [11]) and below 300 µM in data set [5].
With `NCCCC[C@H](NC(=O)[C@@H]1CCCN1C(=O)Cc1cccc2ccccc12)C(=O)NCCc1cccc(-c2ccccc2)c1` [Compound 1k], in data set [2], the Papp at 5 h, 200 μM was 1.3 ×10⁻⁶ cm/s and the Permeability result was “±0.4 10^−6 cm/s”. Moreover, the IC50 in data set [8] (setting [11]) came to 0.69 ± 0.08 µM. In data set [3], this molecule came in with a GI50 of 48 to 135 µM.
On to `NCCCC[C@H](NC(=O)[C@@H]1CCCN1C(=O)Cc1ccc(O)cc1)C(=O)N[C@@H](CCCN=C(N)N)C(N)=O` [BM30], for which the “Selectivity for NTMT1/2” value in [10] was “over 100 fold”. Also, in data set [9] (previously reported inhibitors), the IC50 was 0.89 ± 0.1 µM.
Take `NCCCC[C@H](NC(=O)[C@@H]1CCCN1C(=O)Cc1cccc2ccccc12)C(=O)Nc1ccc(Br)cc1` [Compound 1b]: in [8] (setting [11]), the IC50 is 0.18 ± 0.007 µM. This molecule displayed a GI50 in data set [3] of 48 to 135 µM.
Regarding `NCCCC[C@H](NC(=O)[C@@H]1CCCN1C(=O)Cc1cccc2ccccc12)C(=O)NCCCc1ccccc1` [Compound 1e], the Papp at 5 h, 200 μM in data set [2] was found to be 0.17 ± 0.08 ×10⁻⁶ cm/s. In addition, the IC50 in [8] (setting [11]) was 0.65 ± 0.01 µM; in data set [5] it was around 100 µM. For the same molecule, the GI50 in data set [3] was above 300 µM.

These data come from patent US20250115636A1, “PEPTIDOMIMETIC INHIBITORS OF PROTEIN N-TERMINAL […] 1, COMPOSITION, AND METHOD OF USE” (Purdue Research Foundation, priority 2022, published 2025).
